The values below come from patent US20170319572A1, “COMBINATION DRUG TREATMENT FOR HEPATITIS C INFECTION” (JANSSEN PHARMACEUTICALS, INC., priority 2015, published 2017).

The structures appear in SMILES notation. “Also recorded” adds a separate entry of the source.

For one data set, the target named is T1, OATP1B1 (Homo sapiens, UniProt Q9Y6L6).
T1 sequence (Q9Y6L6 1-691): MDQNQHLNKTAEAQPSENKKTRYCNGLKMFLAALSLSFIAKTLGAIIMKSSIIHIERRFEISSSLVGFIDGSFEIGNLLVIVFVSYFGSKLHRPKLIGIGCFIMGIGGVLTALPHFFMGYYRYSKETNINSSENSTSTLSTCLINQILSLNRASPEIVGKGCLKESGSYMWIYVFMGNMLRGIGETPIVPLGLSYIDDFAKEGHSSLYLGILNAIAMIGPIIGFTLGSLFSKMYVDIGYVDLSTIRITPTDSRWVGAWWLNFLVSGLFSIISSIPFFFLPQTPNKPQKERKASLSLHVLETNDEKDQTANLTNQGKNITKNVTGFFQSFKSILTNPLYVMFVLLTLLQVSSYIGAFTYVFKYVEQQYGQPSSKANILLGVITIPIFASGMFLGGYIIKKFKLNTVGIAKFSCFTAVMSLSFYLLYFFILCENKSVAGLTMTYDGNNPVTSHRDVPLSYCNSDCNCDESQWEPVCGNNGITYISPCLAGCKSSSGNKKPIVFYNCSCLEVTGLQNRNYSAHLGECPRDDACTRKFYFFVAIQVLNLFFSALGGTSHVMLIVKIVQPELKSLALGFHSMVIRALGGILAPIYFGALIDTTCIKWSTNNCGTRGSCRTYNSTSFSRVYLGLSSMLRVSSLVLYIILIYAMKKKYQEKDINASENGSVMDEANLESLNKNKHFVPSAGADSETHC
The note with it: cited from earlier work.

In another data set the target is T2, BCRP (Homo sapiens, UniProt Q9UNQ0).
T2 sequence (Q9UNQ0 1-655): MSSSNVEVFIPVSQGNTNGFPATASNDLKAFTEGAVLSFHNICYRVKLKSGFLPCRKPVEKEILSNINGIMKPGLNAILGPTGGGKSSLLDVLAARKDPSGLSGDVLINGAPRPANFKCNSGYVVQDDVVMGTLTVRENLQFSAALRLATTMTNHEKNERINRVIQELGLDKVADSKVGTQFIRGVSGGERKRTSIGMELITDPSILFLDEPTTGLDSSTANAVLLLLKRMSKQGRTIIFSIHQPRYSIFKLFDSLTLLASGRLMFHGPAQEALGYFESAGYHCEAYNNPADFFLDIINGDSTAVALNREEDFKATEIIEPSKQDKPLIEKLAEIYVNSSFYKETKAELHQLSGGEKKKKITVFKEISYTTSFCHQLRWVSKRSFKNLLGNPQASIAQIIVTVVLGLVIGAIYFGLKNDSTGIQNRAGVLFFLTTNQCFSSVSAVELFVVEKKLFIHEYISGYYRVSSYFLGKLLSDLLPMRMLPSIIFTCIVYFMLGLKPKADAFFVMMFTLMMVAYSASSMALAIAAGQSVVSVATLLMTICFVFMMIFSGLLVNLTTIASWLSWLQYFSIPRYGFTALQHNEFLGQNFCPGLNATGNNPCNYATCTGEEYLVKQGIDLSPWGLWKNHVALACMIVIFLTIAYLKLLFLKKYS
The note with it: cited from earlier work.

The nature of data set [1]: Drug-drug interaction study in humans (Phase-1, open-label, two-group, fixed-sequence, PK). The note with it: for increase of exposure caused by SMV: co-administration of SMV. As to the method:
A drug-drug interaction study (DDI) study is a study designed to investigate whether a drug alters the pharmacokinetics of another drug or drugs or their metabolites.
Compound (III)—Subjects received 800 mg of Compound (III) once daily from Days 1-3, Days 11-13, and Days 21-23. PK blood samples for determination of Compound (III) and metabolite concentrations were collected in reference to the Day 3, Day 13, and Day 23 doses.
Simeprevir—Subjects received 150 mg of Simeprevir (SMV) once daily from Days 4-23. PK blood samples for determination of SMV concentrations were collected in reference to the Day 10, Day 13, Day 20, and Day 23 doses.
Odalasvir—Subjects received a loading dose of 150 mg on Day 14, and 50 mg of Odalasvir once daily from Days 15-23. PK blood samples for determination of Odalasvir concentrations were collected in reference to the Day 20 and Day 23 doses.
Compound (III)—Subjects received 800 mg of Compound (III) once daily from Days 1-3, Days 11-13 and Days 21-23. PK blood samples for determination of Compound (III) and metabolite concentrations were collected in reference to the Day 3, Day 13, and Day 23 doses.
Simeprevir—Subjects receive 150 mg of SMV once daily from Days 4-23. PK blood samples for determination of SMV concentrations were collected in reference to the Day 20 and Day 23 doses.
Odalasvir—Subjects receive a loading dose of 150 mg on Day 4, and 50 mg of Odalasvir once daily from Days 5-23. PK blood samples for determination of Odalasvir concentrations were collected in reference to the Day 10, Day 13, Day 20, and Day 23 doses.
This drug-drug interaction study was intended to assess the safety and tolerability of the described drug combinations at pre-defined time points throughout the study. Study completion/follow-up visit(s) were performed 7 and 28 days after completion of the last study assessment.
A primary objective was to evaluate the effect of multiple oral doses of Odalasvir (alone), Simeprevir (alone), and Odalasvir and Simeprevir on the multiple oral dose PK of Compound (III) (and certain metabolites thereof, such as the major metabolites in systemic circulation) in healthy volunteers. Other objectives were to evaluate the safety and tolerability of multiple oral doses of Compound (III) when administered alone and in combination with single and multiple oral doses of Odalasvir and/or Simeprevir in healthy volunteers; to determine the potential effect of Compound of Compound (III) and/or Odalasvir on the steady-state PK of Simeprevir in healthy volunteers; to determine the potential effect of Compound of Compound (III) and/or Simeprevir on the steady state PK of Odalasvir in healthy volunteers.
Various other PK parameters were estimated including: Clast, t1/2, Tmax, Tlast, CL/F, Vz/F, and λz.
The following daily doses were employed:
Odalasvir: 150 mg loading dose; 50 mg for the remainder of the study period.

Regarding `COC(=O)N[C@H](C(=O)N1[C@H](c2nc3cc(-c4cc5ccc4CCc4ccc(c(-c6ccc7[nH]c([C@@H]8C[C@@H]9CCCC[C@@H]9N8C(=O)[C@@H](NC(=O)OC)C(C)C)nc7c6)c4)CC5)ccc3[nH]2)C[C@@H]2CCCC[C@@H]21)C(C)C` [ODV, methyl [(2S)-1-[(2S,3aS,7aS)-2-[6-[11-[2-[(2S,3aS,7aS)-1-[(2S)-2-[(methoxycarbonyl)amino]-3-methylbutanoyl]octahydro-1H-indol-2-yl]-1H-benzimidazol-6-yl]tricyclo[8.2.2.2^4,7]hexadeca-1(12),4,6,10,13,15-hexaen-5-yl]-1H-benzimidazol-2-yl]octahydro-1H-indol-1-yl]-3-methyl-1-oxobutan-2-yl]carbamate], at OATP1B1, the “inhibition of OATP1B1” value is reported as “no inhibition”. On BCRP, the “inhibition of BCRP” value is given as “no inhibition”. For the same compound, the “increase of exposure, effect of the three Compounds” value in data set [1] (DDI study, Compound (III) + SMV + Odalasvir together) came to 1.5 ×. Moreover, in data set [1] (DDI study, co-administration of Compound (III)), the “effect of Compound (III) on exposure/bioavailability” value is “no apparent effect; also recorded: does not alter the bioavailability”. Also, the “increase of exposure caused by SMV” value in data set [1] (DDI study) was 1.6 ×. Also, in data set [1] (human in vivo study (Example 1), three drugs combined), the “increase of exposure in the combination” value is recorded as 1.5 times. Besides, in data set [1] (human subjects), the “increase of exposure by SMV” value is 1.6 fold.

As to `CC(C)OC(=O)[C@H](C)N[P@](=O)(OC[C@@]1(F)O[C@@H](n2ccc(=O)[nH]c2=O)[C@](C)(O)[C@@H]1O)Oc1ccccc1` [Compound (III), isopropyl ((S)-(((2S,3S,4R,5R)-5-(2,4-dioxo-3,4-dihydropyrimidin-1 (2H)-yl)-2-fluoro-3,4-dihydroxy-4-methyltetrahydrofuran-2-yl)methoxy)(phenoxy)phosphoryl)-L-alaninate], the “inhibition of OATP1B1” value on OATP1B1 is given as “no in vitro inhibition”. The “inhibition of BCRP” value on BCRP is on record as “no in vitro inhibition”. For the same compound, the “increase of exposure caused by Odalasvir” value in data set [1] (DDI study, co-administration of Odalasvir) is on record as 4 ×. Also, the “increase of exposure caused by SMV” value in data set [1] (DDI study) is on record as 3 ×. For the same compound, the Cmax in data set [1] (Group 1, Day 13, Compound (III) 800 mg QD + SMV 150 mg QD) was found to be 376.2 ng/mL; in data set [1] (Group 1, Day 23, Compound (III) 800 mg + SMV 150 mg + ODV 50 mg QD) it was 746.6 ng/mL; in data set [1] (Group 2, Day 3, Compound (III) 800 mg QD alone), 150.7 ng/mL; in data set [1] (Group 2, Day 13, (Compound (III) + SMV) as printed in Table 1), 515.9 ng/mL; in data set [1] (Group 2, Day 23, Compound (III) 800 mg + SMV 150 mg + ODV 50 mg QD), 949.6 ng/mL; in data set [1] (healthy volunteers, Group 1, Day 3, Compound (III) 800 mg QD alone) it was 161.6 ng/mL. In data set [1] (both, human, in vivo), the “increase of exposure in the combination” value was 7-8 times. Also, the “bioavailability with SMV and ODV co-administered compared to Compound (III) alone” value in data set [1] (human subjects) is “approximately 8 fold”.

Usually Cmax stands for the highest concentration seen after dosing.
